From patent publication US7138406B2, “Modulators of the glucocorticoid receptor” (Pfizer, Inc., priority 2002, dated 2006)

Legend:
[1] = test system: IL-8 (Interleukin-8) production; experiment: glucocorticoid inhibition of IL-1 induced IL-8 production in human chondrosarcoma cells; type: cell-based; conditions: SW1353 human chondrosarcoma cells, 20 ng/ml IL-1 beta, 24 hours after addition of IL-1, ELISA; read-out: IC50, inhibitor of IL-8 expression
Method: (§1) This assay, the glucocorticoid inhibition of IL-1 (Interleukin-1) induced MMP-1 (Matrix Metalloproteinase-1) and IL-8 (Interleukin-8) production in human chondrosarcoma cells, is conducted as follows: SW1353 human chondrosarcoma cells (obtained from ATCC) from passage 12 through passage 19 are used in a 96 well format assay. Cells are plated at confluence into 96 well plates in DMEM (Dulbecco's Modified Eagle Medium) with 10% fetal bovine serum and incubated at 37° C., 5% CO2. After 24 hours, serum containing media is removed and replaced with 200 ul/well DMEM containing 1 mg/L insulin, 2 g/L lactalbumin hydrosylate, and 0.5 mg/L ascorbic acid and returned to incubation at 37° C., 5% CO2. […] IL-8 production is assessed using the Quantikine human IL-8 ELISA kit from R&D Systems (D8050) on samples diluted 60-fold in RD5P Calibrator Diluent, following the manufacturer's protocol. The percent of the average IL-1 control is determined for the average of each of the triplicate samples following subtraction of the average signal from untreated cells. IC50's are determined from log linear plots of the percent of control versus the concentration of inhibitor. […] MMP-1 production is assessed via the Bio-Trak MMP-1 ELISA kit from Amersham (RPN2610) on 100 ul of neat sample following the manufacturer's protocol. […]

[2] = test system: MMP-1 (Matrix Metalloproteinase-1) production; experiment: glucocorticoid inhibition of IL-1 induced MMP-1 production in human chondrosarcoma cells; type: cell-based; conditions: SW1353 human chondrosarcoma cells, 20 ng/ml IL-1 beta, 72 hours after IL-1 addition, ELISA; read-out: IC50, inhibitor of MMP1 expression
Method: as §1

melting point	IC50 [1]	IC50 [2]	SMILES
209 to 210 °C	–	–	CC[C@@]12C[C@H](N)[C@](O)(c3ccccc3)C[C@H]1CCc1cc(O)ccc12 [Example 41, (2R,3S,4aR,10aR)-3-Amino-4a-ethyl-2-phenyl-1,2,3,4,4a,9,10,10a-octahydro-phenanthrene-2,7-diol]
236 to 237 °C	–	–	CC[C@@]12C[C@](O)(C(C)C)[C@](O)(c3ccccc3)C[C@H]1CCc1cc(O)ccc12 [Example 49]
190 to 191 °C	–	–	CC[C@@]12C[C@@](C)(O)[C@](O)(c3ccccc3)C[C@H]1CCc1cc(OCC(=O)O)ccc12 [Example 70, (4bR,6R,7R,8aR)-(4b-Ethyl-6,7-dihydroxy-6-methyl-7-phenyl-4b,5,6,7,8,8a,9,10-octahydro-phenanthren-2-yloxy)-acetic acid]
190 to 193 °C	–	–	CC[C@@]12C[C@@](C)(O)[C@](O)(c3ccccc3)C[C@H]1CCc1cc(OCC(C)(C)O)ccc12 [Example 73, (2R,3R,4aR,10aR)-4a-Ethyl-7-(2-hydroxy-2-methyl-propoxy)-3-methyl-2-phenyl-1,2,3,4,4a,9,10,10a-octahydro-phenanthrene-2,3-diol]
108 to 110 °C	–	–	CC[C@@]12C[C@@](C)(O)[C@](O)(c3ccccc3)C[C@H]1CCc1cc(OCc3nnn[nH]3)ccc12 [Example 76, (2R,3R,4aR,10aR)-4a-Ethyl-3-methyl-2-phenyl-7-(1H-tetrazol-5-ylmethoxy)-1,2,3,4,4a,9,10,10a-octahydro-phenanthrene-2,3-diol]

The remaining lines, values behind:

SMILES	melting point	IC50 [1]	IC50 [2]
CC[C@@]12C[C@H](O)[C@](O)(c3c(F)cccc3F)C[C@H]1CCc1cc(OCc3cccnc3C)ccc12 (hydrate or solvate) [Example 56, (2R,3S,4aR,10aR)-2-(2,6-Difluoro-phenyl)-4a-ethyl-7-(2-methyl-pyridin-3-ylmethoxy)-1,2,3,4,4a,9,10,10a-octahydro-phenanthrene-2,3-diol]	80 to 83 °C	–	–
C[C@@H]1C[C@H]2[C@@H]3CCC4=CC(=O)C=C[C@]4(C)[C@@]3(F)[C@@H](O)C[C@]2(C)[C@@]1(O)C(=O)CO [Dexamethasone, (11β,16α)-9-fluoro-11,17,21-trihydroxy-16-methylpregna-1,4-diene-3,20-dione]	–	5 nM	5 nM
CC[C@@]12C[C@H](O)[C@](O)(c3c(F)cccc3F)C[C@H]1CCc1cc(O)ccc12 [Example 35, (2R,3S,4aR,10aR)-2-(2,6-difluorophenyl)-4a-ethyl-1,2,3,4,4a,9,10,10a-octahydrophenanthrene-2,3,7-triol]	198 to 200 °C	–	–
